Data on one substance can be found in patent US9605013B2, “Derivatives of hemin with antibacterial and antiviral activity” (OBSCHESTVO S OGRANICHENNOI OTVETSTVENNOSTIYU …, priority 2011, dated 2017).

The test system of series [1] is Enterococcus faecalis BKM B-871. Put plainly: Antibacterial activity, serial dilutions in liquid MH medium. The class given is cell-based. As to conditions: MH medium, 20 h, 37° C., 100% growth inhibition. Summed up:
(§1)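 Broth microdilution in Mueller-Hinton medium at 37 °C with stirring, using exponential-phase cultures seeded at 5×10^4 to 1×10^5 cells/mL with twofold serial compound dilutions. Growth inhibition read as A595 after 20 h, corrected for compound absorbance; MIC and MBC determined.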

Series [2] concerns Bacillus subtilis BKM B-501. The series is described as above. In kind it is cell-based. As to conditions: MH medium, 20 h, 37° C., 100% growth inhibition. A digest of the protocol:
as §1

For series [3], the system named is Micrococcus luteus BKM Ac-2230. The description is as above. In kind it is cell-based. Summed up: as §1
Series [4] has as its system Herpes Simplex Virus type 2 strain G (No. VR-734 ATCC). The series is described as follows: Antiviral activity, virus cytopathogenic action in Vero cells. In kind it is cell-based. Also on record: key: 0: CPA (cytopathogenic action) is not detected; 1: up to 25% virus-infected monolayer; from 25% to 50%; 3: from 50% to 75%; 4: from 75% to 100%. As to conditions: 48 hours. As to the method: […] used in the study were used Herpes Simplex Virus type 1 (the Collection of Microorganisms at the Scientific Research Institute of Virology, strain EC), Herpes Simplex Virus type 2 strain G (No. VR-734 ATCC), and human cytomegalovirus strain AD169 (No. VR-538 ATCC). Herpes Simplex viruses type 1 and type 2 were cultured in Vero cells. The cells were incubated in MEM Eagle growth medium (MEM, BioloT, St-Petersburg, 1.3.3) supplemented with 10% fetal bovine serum (BioloT, St-Petersburg, 1.3.12) in Sanyo MCO-15AC gas-flow thermostat (37° C., 5% CO2) (Tokyo, Japan). A seed dose was 2×10^5 cells/ml in the starting inoculum or 2×10^4 cells/well. Herpes Simplex viruses were cultured under the same conditions in the MEM medium without serum (maintenance medium). Starting viral titers were 10^7 TCID50/ml.
For DMSO-soluble preparations, stock solutions were prepared in a concentration of 10 mM in DMSO. For water-soluble preparations, a stock solution prepared had the same concentration in the MEM medium (Minimal Essential Medium) for cell cultures. To control cytotoxicity (see below), the stock solution was diluted in the medium to a concentration of 100 μM and ten-fold serial dilutions of the preparations were made in the MEM medium (for DMSO-soluble compounds—in the MEM medium comprising 3% DMSO). The following concentrations of the preparations were used in the study of […]: if toxicity was not found, the concentrations of 100 μM preparations were 100, 10 and 1 μM; if toxicity was detected, the concentrations of 100 μM preparations were 10, 1, and 0.1 μM. Acyclovir (10 μg/ml) was used for Herpes Simplex viruses of both types as a reference preparation to control the viral model validity.
To study antiviral activity, plate wells with a cell monolayer were added with the preparations in an amount of 0.1 ml/well. To compensate a reduction in the concentration of the preparations, which takes place in the following addition of viruses, twofold concentrations of compounds (i.e. 200, 20 and 2 or 20, 2 and 0.2 μM for […] concentrations of 100 μM preparations, respectively) were used, incubated for an hour and then were infected with the examined 0.1 ml/well viruses in doses 1, 10 and 100 TCID50 (50% tissue infectious dose).
The virus-specific cytogenic action was manifested in an increase in the size of cells, their rounding, and detachment from a substrate. These morphological characteristics served as their marked difference from the cells subjected to a toxic action of high concentrations of the examined preparations. The latter acquired spindle-like shape, lost contacts with neighboring cells of the monolayer, and their boundaries became more distinct.
Intensity of the virus-specific changes in the cells were semi-quantified using a 4-score system: 0—CPA (cytopathogenic action) is not detected; 1—up to 25% virus-infected monolayer; 2—from 25% to 50%; 3—from 50% to 75%; and 4—from 75% to 100%. The antiviral activity of a compound was evaluated according to their ability to reduce the manifestation of cytopathogenic action in the plate wells compared to the control values. Differences with the control values by 1 score and more were considered to be significant.
A general note: Cytopathic effects are the visible damage that an infection or toxin causes in cultured cells.

For the substance “6,7-bis-[(Dimethyl Ester N^α-L-Seryl)-L-glutamyl]-Protohemin (IX)”, the water solubility entry in “Water solubility” was “water-soluble”. The MIC (in general, the least concentration at which growth counts as inhibited) in series [1] is 50 µM; in series [2], 50 µM; in series [3] (MH medium, 20 h, 37° C., 100% growth inhibition) it was 12.5 µM. Also, the MBC (as a rule, the smallest concentration meeting the test's criterion for killing) in series [3] (no colonies on agarized MH medium) came to 25 µM. Besides, the “manifestation of the virus CPA” value in series [4] (HSV-2, virus dose 1, concentration 0.1 μM) was 1 (up to 25% virus-infected monolayer); in series [4] (HSV-2, virus dose 1, concentration 1 μM), 1 (up to 25% virus-infected monolayer); in series [4] (HSV-2, virus dose 1, concentration 10 μM), 0^1; in series [4] (HSV-2, virus dose 10, concentration 0.1 μM), 2 (from 25% to 50%); in series [4] (HSV-2, virus dose 10, concentration 1 μM), 2 (from 25% to 50%); in series [4] (HSV-2, virus dose 10, concentration 10 μM) it was 1.5 scores. The “manifestation of the virus CPA” value in series [4] (HSV-2, virus dose 100, concentration 0.1 μM) is given as 3 (from 50% to 75%); in series [4] (HSV-2, virus dose 100, concentration 1 μM) it was 3 (from 50% to 75%); in series [4] (HSV-2, virus dose 100, concentration 10 μM) it was 3 (from 50% to 75%).
